“Also recorded” adds a separate entry of the source.
B1: wild-type CYP102A1: bacterial cytochrome P450 BM3 (CYP102A1) from Bacillus megaterium, SEQ ID NO: 16 (protein)
chain: MTIKEMPQPKTFGELKNLPLLNTDKPVQALMKIADELGEIFKFEAPGRVTRYLSSQRLIKEACDESRFDKNLSQALKFVRDFAGDGLFTSWTHEKNWKKAHNILLPSFSQQAMKGYHAMMVDIAVQLVQKWERLNADEHIEVPEDMTRLTLDTIGLCGFNYRFNSFYRDQPHPFITSMVRALDEAMNKLQRANPDDPAYDENKRQFQEDIKVMNDLVDKIIADRKASGEQSDDLLTHMLNGKDPETGEPLDDENIRYQIITFLIAGHETTSGLLSFALYFLVKNPHVLQKAAEEAARVLVDPVPSYKQVKQLKYVGMVLNEALRLWPTAPAFSLYAKEDTVLGGEYPLEKGDELMVLIPQLHRDKTIWGDDVEEFRPERFENPSAIPQHAFKPFGNGQRACIGQQFALHEATLVLGMMLKHFDFEDHTNYELDIKETLTLKPEGFVVKAKSKKIPLGGIPSPSTEQSAKKVRKKAENAHNTPLLVLYGSNMGTAEGTARDLADIAMSKGFAPQVATLDSHAGNLPREGAVLIVTASYNGHPPDNAKQFVDWLDQASADEVKGVRYSVFGCGDKNWATTYQKVPAFIDETLAAKGAENIADRGEADASDDFEGTYEEWREHMWSDVAAYFNLDIENSEDNKSTLSLQFVDSAADMPLAKMHGAFSTNVVASKELQQPGSARSTRHLEIELPKEASYQEGDHLGVIPRNYEGIVNRVTARFGLDASQQIRLEAEEEKLAHLPLAKTVSVEELLQYVELQDPVTRTQLRAMAAKTVCPPHKVELEALLEKQAYKEQVLAKRLTMLELLEKYPACEMKFSEFIALLPSIRPRYYSISSSPRVDEKQASITVSVVSGEAWSGYGEYKGIASNYLAELQEGDTITCFISTPQSEFTLPKDPETPLIMVGPGTGVAPFRGFVQARKQLKEQGQSLGEAHLYFGCRSPHEDYLYQEELENAQSEGIITLHTAFSRMPNQPKTYVQHVMEQDGKKLIELLDQGAHFYICGDGSQMAPAVEATLMKSYADVHQVSEADARLWLQQLEEKGRYAKDVWAG

What was measured:
human CYP2C19 = human CYP2C19 (Homo sapiens, UniProt P33261); assay: Oxidation of omeprazole by human CYP2C19, metabolites by HPLC and LC-MS; format: in vitro ADME; conditions: human CYP2C19, 100 μM omeprazole, NADPH-generating system, 37° C., 30 minutes
Chain of human CYP2C19 (P33261 whole entry): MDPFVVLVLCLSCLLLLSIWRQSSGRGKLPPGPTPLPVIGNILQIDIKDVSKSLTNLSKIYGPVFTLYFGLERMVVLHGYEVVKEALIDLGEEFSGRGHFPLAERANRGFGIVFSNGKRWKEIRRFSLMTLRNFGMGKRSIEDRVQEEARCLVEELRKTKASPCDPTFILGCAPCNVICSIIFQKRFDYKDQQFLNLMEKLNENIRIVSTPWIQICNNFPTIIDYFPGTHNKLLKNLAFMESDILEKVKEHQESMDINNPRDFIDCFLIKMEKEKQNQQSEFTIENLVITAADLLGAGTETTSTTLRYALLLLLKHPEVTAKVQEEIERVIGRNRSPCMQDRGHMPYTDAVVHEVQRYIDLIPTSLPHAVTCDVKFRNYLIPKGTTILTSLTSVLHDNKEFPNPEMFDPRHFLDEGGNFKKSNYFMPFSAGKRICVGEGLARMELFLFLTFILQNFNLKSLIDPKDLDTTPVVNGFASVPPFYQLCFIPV
Protocol: (§1) CYP102A1 50 pmol and 100 μM substrates were put into 100 mM of a potassium phosphate buffer (pH 7.4) 0.25 me and were subjected to a typical steady state reaction. In order to initiate the reaction, an NADPH-generating system (final concentration: 10 mM glucose 6-phosphate, 0.5 mM NADP^+, and 1 IU yeast glucose 6-phosphate dehydrogenase per 1 me) was added. 20 mM omeprazole solution was prepared by DMSO, and diluted with an enzyme reaction solution so that an organic solvent has the final concentration of 1%(v/v) or less. For measuring an activity of human CYP2C19, 50 pmol P450, 100 pmol NADPH-P450 reductase (CPR), 100 pmol cytochrome b5 and 45 μM L-α-dilauroyl-sn-glycero-3-phosphocholine (DLPC) were used instead of 50 pmol CYP102A1. The reaction solution was reacted at 37 for 30 minutes, and the reaction was terminated by dichloromethane prepared in a cold state with twice amounts of ice.
(§2) The reaction mixture was centrifuged to remove the supernatant, the solvent thereof was evaporated under nitrogen gas (see Vickers et al., 1990), and the obtained mixture was analyzed by HPLC (see Piver et al., 2004). A sample (30 μl) was injected into Gemini C18 column (4.6 mm×150 mm, 5 μm, Phenomenex, Torrance, Calif.). 30% acetonitrile was used as a mobile phase.

CYP102A1 (P450 BM3) = conditions: bacterial wild-type CYP102A1 and mutants, 100 μM omeprazole, NADPH-generating system
Protocol: as §1, §2

[1] = Total turnover number (TTN) of omeprazole oxidation by CYP102A1 enzymes, HPLC; format: biochemical, Bacillus megaterium; conditions: 0.1 mM to 2 mM omeprazole, 30 minutes up to 5 hours, NADPH-generating system
Protocol: 30% acetonitrile was used as a mobile phase.
It could be confirmed from the results of FIG. 5 that the turnover number of the wild-type CYP102A1, 17 kinds of mutants thereof, and 6 kinds of mutant kimeras varied at a large range. In addition, the total turnover number (TTNs) (mol product/mol catalyst) of the CYP102A1 mutant was investigated. In order to measure TTNs of the CYP102A1 mutant, 0.1 mM to 2 mM omeprazole was used, and the reaction was performed with an interval from 30 minutes up to 5 hours. The production rate of the omeprazole metabolite was determined by HPLC.

| Molecule | main metabolites produced from omeprazole (human CYP2C19) | main product produced from omeprazole (CYP102A1 (P450 BM3)) | total turnover number (TTNs), activity towards omeprazole [1] |
| --- | --- | --- | --- |
| COc1ccc2[nH]c([S+]([O-])Cc3ncc(C)c(OC)c3C)nc2c1 (racemic) [omeprazole] | 3′-hydroxyomeprazole and 5′-hydroxyomeprazole | 5′-hydroxyomeprazole | – |
| B1 | – | – | the activity with respect to the omeprazole was hardly shown; also recorded: hardly had an activity with respect to omeprazole |
